Results as given in patent US20190029987A1, “DIMETHYL FUMARATE (DMF) FOR PREVENTION OR TREATMENT OF GOUT, ACNE, DIABETES, VITILIGO AND/OR PYODERMA GANGRENOSUM” (UNIVERSITAT ZURICH, priority 2016, published 2019).

Columns and labels:
[1] = tested on: Nrf2; test: Nrf2 stabilisation and nuclear accumulation in human primary keratinocytes (Western blot); type: cell-based; settings: HPKs, 10 μM, FIG. 6E,F; for expression of the other Nrf2 complex proteins Keap1, Cul3, and Rbx1: 1 h; for stabilisation and nuclear accumulation of Nrf2 protein: harvested after 1 h
Method: Human primary keratinocytes (HPKs) constitutively express pro-IL-1β and inflammasome proteins.
FIG. 6: Bone marrow (BM) cells were isolated from Nrf2-deficient mice and wt litterfnates and differentiated into dendritic cells (DCs). (A, B) After priming with upLPS overnight, BMDCs were treated with the NLRP3 inflammasome activators nigericin (20 μM), zymosan (20 μg/ml), MSU (150 μg/ml), ATP (5 mM) or transfected with poly(dA:dT) (1 μg/ml) for activation of the AIM2 inflammasome. After 6 h, supernatants were analysed for secretion of IL-1β by (A) ELISA or (B) Western blot. Mock-treated but primed BMDCs were analysed for expression of inflammasome proteins and pro-IL-1β at the (C) mRNA level by qRT-PCR or at the (D) protein level by Western blot. (B, D) Duplicates from two individual mice per genotype are shown (biological replicates). (E-G) HPKs were treated with the Nrf2 activators SFN (10 μM), tBHQ (10 μM), DMF (50 μM) and 15d-PGJ2 (10 μM). After 1 h, the cells were harvested and analysed for expression of the indicated proteins using total cell lysates (E) or cytoplasmic and nuclear lysates (F). Western blots for the nuclear protein lamin NC and the cytoplasmic protein α-tubulin served as controls. Specific bands are marked with an asterisk. (G) Total RNA was isolated after 8 h and qRT-PCR was performed for quantification of expression of the Nrf2 target genes glutamate-cysteine ligase, catalytic subunit (GCLC), glutamate-cysteine ligase, modifier subunit (GCLM), and NAD(P)H dehydrogenase, quinone 1 (N001). (A-G) Representative experiments performed at least three times are shown. […] Mann-Whitney test was performed. […] Mann-Whitney test was performed. *P≤0.05

[2] = tested on: Monosodium urate (MSU) crystal-induced peritonitis; settings: mice, high concentrations injected into the peritoneum; cited from earlier work
[3] = biological target: T1, NLRP3 inflammasome (Homo sapiens, UniProt Q96P20); test: Inflammasome activation by nigericin/MSU in differentiated, primed THP-1 cells (IL-1β ELISA, Western blot); type: cell-based; settings: for accumulation of mature IL-1β in the cells (lysate): THP-1, 10 μM 30 min before nigericin, 2.5 h, FIG. 8D; for IL-1β secretion: THP-1, 10 μM 1 h before 5 μM nigericin or 150 μg/ml MSU, 5 h, FIG. 2B
T1 construct: endogenous in cells
T1 sequence (Q96P20 whole entry): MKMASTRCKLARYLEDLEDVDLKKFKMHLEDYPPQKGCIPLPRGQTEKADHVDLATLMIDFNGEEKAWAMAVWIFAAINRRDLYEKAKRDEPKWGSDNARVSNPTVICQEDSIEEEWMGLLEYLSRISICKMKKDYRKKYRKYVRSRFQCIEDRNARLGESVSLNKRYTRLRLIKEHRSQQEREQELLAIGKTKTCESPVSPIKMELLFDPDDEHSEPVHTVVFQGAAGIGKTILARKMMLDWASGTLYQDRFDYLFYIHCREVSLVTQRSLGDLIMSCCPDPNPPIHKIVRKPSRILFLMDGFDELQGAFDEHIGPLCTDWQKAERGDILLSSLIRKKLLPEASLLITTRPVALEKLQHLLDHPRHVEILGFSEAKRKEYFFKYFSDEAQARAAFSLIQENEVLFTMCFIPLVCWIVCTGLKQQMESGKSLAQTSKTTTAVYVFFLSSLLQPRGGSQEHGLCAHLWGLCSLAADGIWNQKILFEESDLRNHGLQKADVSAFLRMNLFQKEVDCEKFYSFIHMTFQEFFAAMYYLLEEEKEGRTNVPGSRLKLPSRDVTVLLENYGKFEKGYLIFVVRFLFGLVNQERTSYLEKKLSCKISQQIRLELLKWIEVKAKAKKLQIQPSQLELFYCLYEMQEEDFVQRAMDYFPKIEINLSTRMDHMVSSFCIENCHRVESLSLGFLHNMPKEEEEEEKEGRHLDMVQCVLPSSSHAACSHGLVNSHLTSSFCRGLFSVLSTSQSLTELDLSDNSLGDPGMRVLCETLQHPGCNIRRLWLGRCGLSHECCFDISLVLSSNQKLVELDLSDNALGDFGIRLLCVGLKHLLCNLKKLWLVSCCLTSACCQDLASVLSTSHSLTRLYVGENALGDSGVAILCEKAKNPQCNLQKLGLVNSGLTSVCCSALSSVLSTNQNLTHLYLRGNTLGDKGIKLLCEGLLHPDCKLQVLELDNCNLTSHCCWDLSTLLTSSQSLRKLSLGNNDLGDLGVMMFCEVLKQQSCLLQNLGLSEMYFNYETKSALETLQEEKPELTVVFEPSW
Text: To determine the effects of Nrf2 activating compounds on inflammasome activation, the inventors treated keratinocytes with different doses of SFN, tBHQ, DMF or 15d-PGJ2 and irradiated the cells with UVB.
SFN, DMF, 15d-PGJ2, tBHQ, zymosan, ATP, poly(dA:dT), cycloheximide, puromycin, and doxycycline were purchased from Sigma (Munich, Germany), nigericin from Enzo Life Sciences (New York, US-NY), MG132 from Calbiochem (Darmstadt, Germany), and blasticidin from Invivogen (Toulouse, France). Release of IL-1p was determined by ELISA according the instructions of the manufacturer (R&D Systems, Minneapolis, US-MN). MSU crystals were prepared by crystallisation of a supersaturated solution of uric acid under mildly basic conditions. Briefly, uric acid was added to a solution of NaOH, the solution was boiled until the uric acid was dissolved and passed through a filter. NaCl was added and crystallisation was performed at 4° C. Crystals were filtered, then dried using a speedvac, weighted and autoclaved.
(A) HPKs were treated with the indicated concentrations of the Nrf2 activating compound tBHQ irradiated with UVB 30 min later and harvested after 5 h. ELISA measurements were performed for quantification of IL-1β secretion and Western blots for analysis of expression and activation of the indicated proteins. Specific bands are marked with an asterisk. (B) THP-1 cells were differentiated with PMA (27 nM) for 3 d, primed with upLPS (100 ng/ml) overnight, and 1 h before inflammasome activation (5 μM nigericin, 150 μg/ml MSU) treated with SFN (10 μM), 15-PGJ2 (10 μM) or DMF (50 μM) (15-PG: 15-PGJ2). Cells and supernatants were harvested after 5 h and analysed for inflammasome activation by ELISA measurement of IL-1p and Western blots as indicated. (C) Freshly isolated PBMCs from human blood were primed overnight with upLPS (100 ng/ml) and treated with SFN (10 μM), tBHQ (10 μM), DMF (50 μM) or 15-PGJ2 (10 μM) 1 h before inflammasome activation by nigericin (5 μM). ELISA measurement for secretion of IL-1β as readout for inflammasome activation was performed after 5 h. (D) HPKs or (E) differentiated and primed THP-1 cells were pretreated with cycloheximide (CHX, 30 μg/ml) to block protein synthesis for 1 h before SFN (10 μM) was added to the cells and after an additional hour the inflammasome was activated by (D) irradiation with UVB or (E) treatment with nigericin (5 μM). Cells and supernatants were harvested after (D) 6 h or (E) 3.5 h and analysed for inflammasome activation by Western blot as indicated. (A-E) Representative experiments performed at least three times are shown. Statistics: (A-C) Error bars represent the mean±SD of a representative experiment performed in triplicates. One-way ANOVA was performed. **P≤0.01; ***P≤0.001.
(A-C) HPKs were irradiated with (A) UVB or treated with (B) nigericin (5 μM) and cells and supernatants were harvested at different time points as indicated. Western blots for expression and activation of the indicated proteins. Specific bands are marked with an asterisk. (C) Expression of Nrf2 and Nrf2 target genes was determined by qRT-PCR. (D, E) THP-1 cells were differentiated with PMA (27 nM) for 3 d, primed with upLPS (100 ng/ml) overnight and treated with nigericin (5 μM) or MSU (150 μg/ml). Cells and supernatants were harvested at different time points as indicated and analysed for (D) expression and activation of the proteins as indicated by Western blot and (E) expression of Nrf2 and Nrf2 target genes by qRT-PCR. (F) HPKs were transfected with specific siRNAs as indicated (scr: scrambled, c1: caspase-1, K1; Keap1), 2 d later irradiated with UVB or treated with nigericin (5 μM). Cells were harvested after 1 h or 5 h, and lysates were analysed for the expression of the indicated proteins by Western blot.

SMILES	expression of the other Nrf2 complex proteins Keap1, Cul3, and Rbx1 [1]	stabilisation and nuclear accumulation of Nrf2 protein [1]	inflammasome activation and MSU-induced peritonitis [2]	accumulation of mature IL-1β in the cells (lysate) [3]	IL-1β secretion [3]	inflammasome inhibition by SFN with protein synthesis blocked by cycloheximide ([3]; THP-1, CHX 30 μg/ml 1 h before SFN 10 μM, nigericin 5 μM 1 h later, 3.5 h, FIG. 2E)	dependence of inflammasome inhibition on Keap1 ([3]; THP-1 cells with knockout of Keap1, 10 μM pretreatment, nigericin 5 μM, 3.5 h, FIG. 4H)
C[S+]([O-])CCCCN=C=S (stereo not drawn) [SFN, sulforaphane]	not affected	fast and robust stabilisation and nuclear accumulation of Nrf2 protein	blocked inflammasome activation and reduced MSU-induced peritonitis	mature IL-1β did not accumulate	inhibited IL-1β secretion	did not prevent inflammasome inhibition	Keap1 independent
CCCCCC=CC=C1C(=O)C=CC1CC=CCCCC(=O)O [15d-PGJ2, 15-deoxy-D-prostaglandin J2]	not affected	fast and robust stabilisation and nuclear accumulation of Nrf2 protein	blocked inflammasome activation and reduced MSU-induced peritonitis	mature IL-1β did not accumulate	inhibited IL-1β secretion		
